Source: PMC9746828, “Small-molecule PROTAC mediates targeted protein degradation to treat STAT3-dependent epithelial cancer” (JCI Insight, 2022)

Biological target: STAT3 (Homo sapiens, UniProt P40763)
Experiment: microscale thermophoresis (MST), recombinant human STAT3
Assay type: binding

STAT3, sequence (P40763 2-770): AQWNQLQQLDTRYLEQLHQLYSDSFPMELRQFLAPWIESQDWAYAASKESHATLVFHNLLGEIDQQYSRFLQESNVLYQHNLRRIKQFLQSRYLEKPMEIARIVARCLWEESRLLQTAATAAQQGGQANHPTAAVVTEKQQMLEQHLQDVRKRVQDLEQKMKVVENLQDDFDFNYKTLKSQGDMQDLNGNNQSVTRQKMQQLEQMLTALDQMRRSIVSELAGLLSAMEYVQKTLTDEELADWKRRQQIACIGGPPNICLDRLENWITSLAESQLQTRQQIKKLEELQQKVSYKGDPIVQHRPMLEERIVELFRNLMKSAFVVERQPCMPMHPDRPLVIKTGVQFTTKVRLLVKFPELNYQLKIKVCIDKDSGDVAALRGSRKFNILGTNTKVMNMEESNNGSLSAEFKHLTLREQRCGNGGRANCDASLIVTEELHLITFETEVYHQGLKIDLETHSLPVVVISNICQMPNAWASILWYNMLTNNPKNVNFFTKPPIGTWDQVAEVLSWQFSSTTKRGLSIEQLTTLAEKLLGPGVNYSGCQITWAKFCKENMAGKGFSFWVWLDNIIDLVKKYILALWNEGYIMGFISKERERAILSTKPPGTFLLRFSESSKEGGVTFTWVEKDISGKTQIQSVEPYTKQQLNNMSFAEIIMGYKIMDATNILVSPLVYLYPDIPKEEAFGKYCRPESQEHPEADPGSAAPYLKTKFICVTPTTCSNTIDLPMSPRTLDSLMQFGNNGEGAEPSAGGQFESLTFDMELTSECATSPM

How did the Kd turn out when `CC(=O)O[C@@H]1C[C@H](O)[C@@]23CO[C@@H](O)[C@]1(C)[C@@H]2C[C@@H](O)[C@]1(C)[C@@H]3C(=O)[C@H](OC(C)=O)[C@@]2(C)[C@H](c3ccoc3)C[C@H]3O[C@]321` [TSN, toosendanin] was run?
Its Kd is 296 nM.
